Experimental findings from US11472766B2, “Lipid nanoparticle composition” (Suzhou Abogen Biosciences Co., Ltd., priority 2020, dated 2022) are described below.

The nature of data set [1]: Lipid nanoparticle size by dynamic light scattering (Malvern Zetasizer Nano ZS). In kind it is physicochemical. The settings on record: LNP: cationic lipid/DSPC/cholesterol/PEG-lipid 50:10:38.5:1.5, hEPO mRNA. In outline:
(§1)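 LNPs of cationic lipid:DSPC:cholesterol:PEG-lipid (50:10:38.5:1.5 molar) with mRNA in 10–50 mM citrate pH 4, microfluidic mixing at 1:3 ethanol:aqueous, lipid:mRNA weight ratio ~10:1–30:1, dialysed into DPBS and 0.2 μm filtered. Size by DLS, 173° backscatter; encapsulation efficiency by Ribogreen assay.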

Data set [2] can be described thus: Encapsulation efficiency of lipid nanoparticles (Quant-it Ribogreen RNA quantification assay). In kind it is physicochemical. Conditions: LNP encapsulating hEPO mRNA. In outline:
as §1

Data set [3] is described as follows: Apparent pKa of LNP formulations (TNS fluorescence assay). Conditions: LNP cationic lipid/DSPC/cholesterol/DMG-PEG 50/10/38.5/1.5 mol %.
In data set [4] the test system is human erythropoietin (hEPO) mRNA. Briefly: Animal study: hEPO expression after tail vein injection of LNPs encapsulating hEPO mRNA (serum ELISA). Format: in vivo. Conditions: hEPO level, female ICR mice, 0.5 mg/kg, 6 hours post administration; for Expression at 6 h (μg/ml): class symbols, Table 3; for Expression at 6 h: Table 2. In outline:
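Female ICR mice (6-8 weeks) received LNPs carrying hEPO mRNA by tail vein injection at 0.5 mg/kg, with MC3 LNPs dosed the same way as positive control. Blood was drawn at set times (e.g., 6 h) and serum separated. hEPO was quantified by ELISA and reported as μg/ml.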

Structures are written as SMILES.

As to `CCCCC/C=C\CCCC(CCC/C=C\CCCCC)OC(=O)CCCCCN(CCCCCC(=O)OCCC/C=C/CCCCC)CCN(CCO)C1CCC1` [Compound 63], in data set [1] (Table 3), the polydispersity is given as 0.088 and the size nm was 94.11 nm. For the same compound, the “Encapsulation Efficiency” value in data set [2] (Table 3) was 85.9%. In addition, in data set [3] (Table 3), the “Apparant Pka” value was 6.406. Further, in data set [4], the “Expression at 6 h (μg/ml)” value was “B (≥1 and <2)”.
Consider `CCCCCCCCC(CCCCCC)COC(=O)CCCCCN(CCCCCC(=O)OCC(CCCCCC)CCCCCCCC)CCN(CCCO)C1CCCCCC1` (centres unmarked) [Compound 10], for which, in data set [1] (Table 2), the polydispersity stood at 0.113 and the “size nm” value amounted to 69.2 nm. In addition, the “Encapsulation Efficiency” value in data set [2] (Table 2) was 96.0%. In data set [3] (Table 2), the “Apparant Pka” value was determined as 5.83. In addition, in data set [4], the “Expression at 6 h” value was 0.79 µg/mL.
As to `CCCCC/C=C\CCCC(CCC/C=C\CCCCC)COC(=O)CCCCCN(CCCCCC(=O)OCC(CCC/C=C\CCCCC)CCC/C=C\CCCCC)CCN(CCO)C1CCC1` [Compound 66], in data set [1] (Table 3), the polydispersity turned out to be 0.064 and the size nm amounted to 63.86 nm. Also, the “Encapsulation Efficiency” value in data set [2] (Table 3) is given as 80.0%. For the same compound, the “Apparant Pka” value in data set [3] (Table 3) is listed as 6.036. Also, in data set [4], the “Expression at 6 h (μg/ml)” value was “B (≥1 and <2)”.
In data set [1] (Table 3), `CCCCCCCCC(CCCCCC)COC(=O)CCCCCN(CCCCCC(=O)OCC(CCCCCC)CCCCCCCC)CCN(CCCCCCCCO)C1CCC1` (centres unmarked) [Compound 31] returned a polydispersity of 0.076 and a size nm of 71.64 nm. In addition, the “Encapsulation Efficiency” value in data set [2] (Table 3) was found to be 92.4%. Also, the “Apparant Pka” value in data set [3] (Table 3) amounted to 5.822. In addition, the “Expression at 6 h (μg/ml)” value in data set [4] was “C (≥0.1 and <1)”.
In data set [1] (Table 3), `CCCCCCCCC(CCCCCC)CC(=O)OCCCCCN(CCCCCOC(=O)CC(CCCCCC)CCCCCCCC)CCN(CCO)C1CCC1` (centres unmarked) [Compound 20] came in with a polydispersity of 0.103 and a size nm of 76.79 nm. The “Encapsulation Efficiency” value in data set [2] (Table 3) came out at 98.1%. Also, in data set [3] (Table 3), the “Apparant Pka” value is 6.252. Besides, in data set [4], the “Expression at 6 h (μg/ml)” value is recorded as “A (≥2)”.
For `CCCCCCCCC(CCCCCC)COC(=O)CCCCCC(CCCCCC(=O)OCC(CCCCCC)CCCCCCCC)CN(CC)CCO` (centres unmarked) [Compound 16], in data set [1] (Table 3), the polydispersity was determined as 0.225 and the size nm stood at 54.69 nm. Besides, the “Encapsulation Efficiency” value in data set [2] (Table 3) amounted to 98.87%. Besides, the “Apparant Pka” value in data set [3] (Table 3) is 4.403. Also, the “Expression at 6 h (μg/ml)” value in data set [4] is “D (<0.1)”.
For `CCCCCCCCCCCOC(=O)CCCCCN(CCCCCC(=O)NCC(CCCCCCCC)CCCCCCCC)CCN(CCO)C1CCCCC1` [Compound 148], in that order: 0.046, 83.84 nm, 85.6%, 7.146 and “A (≥2)”.
In data set [1] (Table 3), `CCCCC(CCCC)CCCCCC(=O)OCCCCCN(CCCCCOC(=O)CCCCCC(CCCC)CCCC)CCN(CCO)C1CCC1` [Compound 85] showed a polydispersity of 0.065 and a size nm of 82.91 nm. Moreover, the “Encapsulation Efficiency” value in data set [2] (Table 3) is given as 93.7%. For the same compound, the “Apparant Pka” value in data set [3] (Table 3) was found to be 6.46. Moreover, the “Expression at 6 h (μg/ml)” value in data set [4] was “B (≥1 and <2)”.
In data set [1] (Table 3), `CCCCCCCCCCCOC(=O)CCCCCN(CCCCCC(=O)NCC(CCCCCCCC)CCCCCCCC)CCN(CCO)C1CCCCCC1` [Compound 149] returned a polydispersity of 0.07 and a size nm of 72.85 nm. For the same compound, the “Encapsulation Efficiency” value in data set [2] (Table 3) is given as 86.3%. In data set [3] (Table 3), the “Apparant Pka” value is 6.810. The “Expression at 6 h (μg/ml)” value in data set [4] is “B (≥1 and <2)”.
In data set [1] (Table 3), `CCCCCCCCC(CCCCCC)COC(=O)CCCCCN(CCCCCC(=O)OCC(CCCCCC)CCCCCCCC)C(=O)CCCN(CCO)C1CCC1` (centres unmarked) [Compound 13] came in with a polydispersity of 0.095 and a size nm of 89.96 nm. In addition, in data set [2] (Table 3), the “Encapsulation Efficiency” value was 96.8%. Further, the “Apparant Pka” value in data set [3] (Table 3) is given as 7.206. The “Expression at 6 h (μg/ml)” value in data set [4] was “C (≥0.1 and <1)”.
Take `CCCCCCCCC(CCCCCC)COC(=O)CCCCCN(CCCCCC(=O)OCC(CCCCCC)CCCCCCCC)CCN(C1CCC1)C1CCC(O)CC1` (centres unmarked) [Compound 93]: in data set [1] (Table 3), the polydispersity turned out to be 0.041 and the size nm is listed as 93.74 nm. In addition, the “Encapsulation Efficiency” value in data set [2] (Table 3) came to 98.3%. Also, the “Apparant Pka” value in data set [3] (Table 3) was determined as 6.491. Further, the “Expression at 6 h (μg/ml)” value in data set [4] is on record as “A (≥2)”.
For `CCCCCCCCC(CCCCCC)CC(=O)NCCCCCN(CCCCCNC(=O)CC(CCCCCC)CCCCCCCC)CCN(CCO)C1CCCCCC1` (centres unmarked) [Compound 116], in that order: 0.201, 79.28 nm, 94.5%, 6.795 and “A (≥2)”.
On to `CCCCC/C=C\CCCC(=O)C(CC/C=C\CCCCC)C(CCC/C=C\CCCCC)OC(=O)CCCCCN(CCO)CCCCCC(=O)OCCC/C=C/CCCCC` (centres unmarked) [Compound 100], for which, in data set [1] (Table 3), the polydispersity worked out at 0.208 and the size nm is 58.6 nm. Further, in data set [2] (Table 3), the “Encapsulation Efficiency” value is reported as 87.7%. In data set [3] (Table 3), the “Apparant Pka” value amounted to 6.187. Also, the “Expression at 6 h (μg/ml)” value in data set [4] is “C (≥0.1 and <1)”.
On to `CCCCCCCCC(CCCCCC)COC(=O)CCCCCN(CCCCCC(=O)OCC(CCCCCC)CCCCCCCC)CCN(CCO)CCCC` (centres unmarked) [Compound C], for which, in data set [1] (Table 2), the polydispersity amounted to 0.061 and the “size nm” value came to 65.0 nm. Moreover, in data set [2] (Table 2), the “Encapsulation Efficiency” value is 96.9%. Besides, in data set [3] (Table 2), the “Apparant Pka” value stood at 6.46. In addition, the “Expression at 6 h” value in data set [4] was determined as 2.95 µg/mL.
In data set [1] (Table 3), `CCCCCCCCC(CCCCCCCC)COC(=O)CCCCCN(CCCCCC(=O)OCC(CCCCCCCC)CCCCCCCC)CCN(CCC)C1CCC(O)CC1` (centres unmarked) [Compound 70] returned a polydispersity of 0.034 and a size nm of 77.54 nm. In addition, the “Encapsulation Efficiency” value in data set [2] (Table 3) was found to be 84.3%. Further, in data set [3] (Table 3), the “Apparant Pka” value is reported as 6.381. The “Expression at 6 h (μg/ml)” value in data set [4] is listed as “A (≥2)”.
On to `CCCCCCC(CCCCCC)CNC(=O)CCCCCN(CCCCCC(=O)OCC(CCCCCC)CCCCCC)CCN(CCO)C1CCCCCC1` [Compound 141], for which, in data set [1] (Table 3), the polydispersity was found to be 0.036 and the size nm came to 71.93 nm. Also, the “Encapsulation Efficiency” value in data set [2] (Table 3) worked out at 89.1%. In data set [3] (Table 3), the “Apparant Pka” value came to 6.766. Further, the “Expression at 6 h (μg/ml)” value in data set [4] is listed as “A (≥2)”.
The corresponding values for `CCCCCCCCC(CCCCCC)CC(=O)NCCCCCN(CCCCCNC(=O)CC(CCCCCC)CCCCCCCC)CCN(CCO)C1CCCC1` (centres unmarked) [Compound 114] are 0.025, 87.92 nm, 89.3%, 6.695 and “A (≥2)”.
In data set [1] (Table 3), `CCCCCCCCCCCOC(=O)CCCCCN(CCCCCC(=O)OCC(CCCCCCCC)CCCCCCCC)CCN(CCO)C1CC1` [Compound 80] came in with a polydispersity of 0.06 and a size nm of 76.71 nm. Also, the “Encapsulation Efficiency” value in data set [2] (Table 3) was 85.2%. The “Apparant Pka” value in data set [3] (Table 3) stood at 6.201. Further, in data set [4], the “Expression at 6 h (μg/ml)” value is “B (≥1 and <2)”.
In data set [1] (Table 3), `CCCCCCCCCCCOC(=O)CCCCCN(CCCCCC(=O)OCC(CCCCCCCC)CCCCCCCC)CCN(CCO)C1CCC1` [Compound 81] showed a polydispersity of 0.028 and a size nm of 75.89 nm. For the same compound, the “Encapsulation Efficiency” value in data set [2] (Table 3) is 94.6%. In data set [3] (Table 3), the “Apparant Pka” value is on record as 6.476. Moreover, in data set [4], the “Expression at 6 h (μg/ml)” value is “A (≥2)”.
